Laboratory results as given in the supplement of paper PMC5908809.

Legend:
[1] = test system: normal NK cells expanded with K562-aAPC; assay: percent inhibition of viability; higher = more inhibition; conditions: 72 h, IL-2 2.5 ng/mL
Procedure: (§1)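 Drug sensitivity and resistance testing on K562-aAPC-expanded normal NK cells: 5 concentrations (10-fold steps over a 10,000-fold range), 72 h at 37 °C, viability by CellTiter-Glo normalised to DMSO and benzethonium chloride controls; DSS from the fitted curve.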

DERL-7 (IL-2 2.5 ng/mL) [2] = assay: as above; conditions: 72 h
IMC-1 (IL-2 20 ng/mL) [3] = assay: as above; conditions: 72 h
KAI3 (IL-2 2.5 ng/mL) [4] = assay: as above; conditions: 72 h
KHYG-1 (IL-2 2.5 ng/mL) [5] = assay: as above; conditions: 72 h
NK-92 (IL-2 2.5 ng/mL) [6] = assay: as above; conditions: 72 h
NK-YS (IL-2 2.5 ng/mL) [7] = assay: as above; conditions: 72 h
NKL (IL-2 2.5 ng/mL) [8] = assay: as above; conditions: 72 h
SNK-6 (IL-2 2.5 ng/mL) [9] = assay: as above; conditions: 72 h
YT (IL-2 2.5 ng/mL) [10] = assay: as above; conditions: 72 h
[11] = test system: normal primary NK cells, pool 1 (3 donors) (IL-2 2.5 ng/mL); assay: as above; conditions: 72 h
[12] = test system: normal primary NK cells, pool 1 (3 donors), resting (IL-2 0 ng/mL); assay: as above; conditions: 72 h
[13] = test system: normal primary NK cells, pool 2 (3 donors) (IL-2 2.5 ng/mL); assay: as above; conditions: 72 h
[14] = test system: normal primary NK cells, pool 3 (3 donors) (IL-2 2.5 ng/mL); assay: as above; conditions: 72 h
[15] = test system: normal NK cells expanded with K562-aAPC; assay: drug sensitivity score (DSS) (DSS units); higher = more sensitive; extreme values may be limits of the assay; conditions: 72 h; IL-2 2.5 ng/mL
Procedure: as §1

DERL-7 (IL-2 2.5 ng/mL) [16] = assay: as above; conditions: 72 h
IMC-1 (IL-2 20 ng/mL) [17] = assay: as above; conditions: 72 h
KAI3 (IL-2 2.5 ng/mL) [18] = assay: as above; conditions: 72 h
KHYG-1 (IL-2 2.5 ng/mL) [19] = assay: as above; conditions: 72 h
NK-92 (IL-2 2.5 ng/mL) [20] = assay: as above; conditions: 72 h
NK-YS (IL-2 2.5 ng/mL) [21] = assay: as above; conditions: 72 h
NKL (IL-2 2.5 ng/mL) [22] = assay: as above; conditions: 72 h
SNK-6 (IL-2 2.5 ng/mL) [23] = assay: as above; conditions: 72 h
YT (IL-2 2.5 ng/mL) [24] = assay: as above; conditions: 72 h
[25] = test system: normal primary NK cells, pool 1 (3 donors) (IL-2 2.5 ng/mL); assay: as above; conditions: 72 h
[26] = test system: normal primary NK cells, pool 1 (3 donors), resting (IL-2 0 ng/mL); assay: as above; conditions: 72 h
[27] = test system: normal primary NK cells, pool 2 (3 donors) (IL-2 2.5 ng/mL); assay: as above; conditions: 72 h
[28] = test system: normal primary NK cells, pool 3 (3 donors) (IL-2 2.5 ng/mL); assay: as above; conditions: 72 h

S=C(NCc1ccc2c(c1)OCO2)N1CCN(c2ncnc3c2oc2ccccc23)CC1 [Amuvatinib] (max concentration tested 10000 nM)
percent inhibition of viability [%]
Conditions | 1 nM | 10 nM | 100 nM | 1000 nM | 10000 nM
DERL-7 (IL-2 2.5 ng/mL) [2] | 0.19 | 2.67 | 18 | 55.9 | 90.5
IMC-1 (IL-2 20 ng/mL) [3] | -1.71 | -0.29 | 1.01 | 41.2 | 44.1
KAI3 (IL-2 2.5 ng/mL) [4] | 3.55 | -2.41 | 7.21 | 17.6 | 54.5
KHYG-1 (IL-2 2.5 ng/mL) [5] | -5.63 | -5.61 | -1.04 | 24.3 | 73.6
NK-92 (IL-2 2.5 ng/mL) [6] | -8.12 | -11.4 | -3.54 | 36.4 | 65.1
NK-YS (IL-2 2.5 ng/mL) [7] | -2.83 | -6.84 | -2.71 | 12.6 | 91
NKL (IL-2 2.5 ng/mL) [8] | -10.5 | -7.21 | 6.91 | 53.6 | 95
SNK-6 (IL-2 2.5 ng/mL) [9] | 13.3 | -6.01 | 16.5 | 40.9 | 60.9
YT (IL-2 2.5 ng/mL) [10] | -2.59 | -1.83 | 3.31 | 19.5 | 49.5
[1] | -2.56 | -1.86 | -4.91 | 0.6 | 18.6
[11] | -0.46 | 10.3 | 3.46 | 19.5 | 80.3
[12] | 7.55 | 15.6 | 5.58 | 28.6 | 83.9
[13] | -4.53 | 2.76 | 7.13 | 11.1 | 69.2
[14] | -1.07 | 8.45 | 6.14 | 11.8 | 60.8

Conditions | drug sensitivity score
DERL-7 (IL-2 2.5 ng/mL) [16] | 12.9
IMC-1 (IL-2 20 ng/mL) [17] | 7.59
KAI3 (IL-2 2.5 ng/mL) [18] | 4.97
KHYG-1 (IL-2 2.5 ng/mL) [19] | 7.56
NK-92 (IL-2 2.5 ng/mL) [20] | 8.04
NK-YS (IL-2 2.5 ng/mL) [21] | 7.16
NKL (IL-2 2.5 ng/mL) [22] | 11.7
SNK-6 (IL-2 2.5 ng/mL) [23] | 9.4
YT (IL-2 2.5 ng/mL) [24] | 4.88
[15] | 0.55
[25] | 7.49
[26] | 8.27
[27] | 5.67
[28] | 5.25

NC(=O)c1cccc2cn(-c3ccc([C@@H]4CCCNC4)cc3)nc12 [Niraparib] (max concentration tested 10000 nM)
percent inhibition of viability [%]
Conditions | 1 nM | 10 nM | 100 nM | 1000 nM | 10000 nM
DERL-7 (IL-2 2.5 ng/mL) [2] | 0.54 | 3.15 | 0.76 | 8.32 | 68.3
IMC-1 (IL-2 20 ng/mL) [3] | -4.38 | 1.54 | 3.53 | 17.8 | 95.6
KAI3 (IL-2 2.5 ng/mL) [4] | -1.88 | 8.15 | 4.77 | 19.1 | 78.8
KHYG-1 (IL-2 2.5 ng/mL) [5] | -5.84 | 6.09 | -1.02 | 10.6 | 92.7
NK-92 (IL-2 2.5 ng/mL) [6] | 4.26 | 12 | 8.71 | 15.1 | 92.8
NK-YS (IL-2 2.5 ng/mL) [7] | -10.5 | -0.47 | -4.5 | 25.4 | 94.5
NKL (IL-2 2.5 ng/mL) [8] | -9.92 | 5.83 | 22.1 | 72.4 | 82.9
SNK-6 (IL-2 2.5 ng/mL) [9] | -11.2 | -10.2 | 1.34 | 0.26 | 86.7
YT (IL-2 2.5 ng/mL) [10] | -0.31 | 5.58 | -0.5 | -2.07 | 34
[1] | 0.08 | 1.98 | 2.28 | 18.1 | 32.5
[11] | 6.04 | -0.22 | -4.85 | -8.51 | -4.48
[12] | 1.46 | -12.9 | -7.56 | -30.2 | -19.6
[13] | -5.25 | -5.29 | 0.44 | -5.11 | 2.06
[14] | -3.37 | -7.45 | 1.14 | -2 | 0.09

Conditions | drug sensitivity score
DERL-7 (IL-2 2.5 ng/mL) [16] | 5.15
IMC-1 (IL-2 20 ng/mL) [17] | 8.2
KAI3 (IL-2 2.5 ng/mL) [18] | 7.35
KHYG-1 (IL-2 2.5 ng/mL) [19] | 6.89
NK-92 (IL-2 2.5 ng/mL) [20] | 7.65
NK-YS (IL-2 2.5 ng/mL) [21] | 9.06
NKL (IL-2 2.5 ng/mL) [22] | 16
SNK-6 (IL-2 2.5 ng/mL) [23] | 4.87
YT (IL-2 2.5 ng/mL) [24] | 1.42
[15] | 3.36
[25] | 0
[26] | 0
[27] | 0
[28] | 0

C#Cc1cccc(Nc2ncnc3cc(OCCOC)c(OCCOC)cc23)c1 [Erlotinib] (max concentration tested 10000 nM)
percent inhibition of viability [%]
Conditions | 1 nM | 10 nM | 100 nM | 1000 nM | 10000 nM
DERL-7 (IL-2 2.5 ng/mL) [2] | 0.1 | -2.35 | -1.33 | 1.39 | 48.4
IMC-1 (IL-2 20 ng/mL) [3] | 1.33 | 9.48 | 7.46 | 12.3 | 22.8
KAI3 (IL-2 2.5 ng/mL) [4] | 1.13 | 8.32 | -5.25 | 20 | 58.5
KHYG-1 (IL-2 2.5 ng/mL) [5] | 3.49 | 6.34 | 8.19 | 9.39 | 47.6
NK-92 (IL-2 2.5 ng/mL) [6] | 9.74 | 4.56 | 24.3 | 25.9 | 43.1
NK-YS (IL-2 2.5 ng/mL) [7] | 1.58 | 1.15 | 0.89 | 5.14 | 24.1
NKL (IL-2 2.5 ng/mL) [8] | 5.31 | 4.23 | 11.4 | 14.5 | 38.5
SNK-6 (IL-2 2.5 ng/mL) [9] | 7.98 | 8.62 | 18.3 | 17.6 | 32.2
YT (IL-2 2.5 ng/mL) [10] | 8.58 | 6.57 | 10.3 | 17.4 | 38.6
[1] | 0.68 | 3.68 | 2.85 | 12.2 | 44.6
[11] | 0.75 | -3.53 | 2.15 | -7.62 | 24.8
[12] | -2.01 | -10.5 | -8.04 | -1.92 | 55.7
[13] | -6.62 | -1.77 | 13.4 | 4.86 | 41.7
[14] | -5.26 | -4.35 | 6.24 | -3.65 | 27.2

Conditions | drug sensitivity score
DERL-7 (IL-2 2.5 ng/mL) [16] | 2.71
IMC-1 (IL-2 20 ng/mL) [17] | 1.94
KAI3 (IL-2 2.5 ng/mL) [18] | 6.03
KHYG-1 (IL-2 2.5 ng/mL) [19] | 4.03
NK-92 (IL-2 2.5 ng/mL) [20] | 7.75
NK-YS (IL-2 2.5 ng/mL) [21] | 1.63
NKL (IL-2 2.5 ng/mL) [22] | 3.76
SNK-6 (IL-2 2.5 ng/mL) [23] | 5.2
YT (IL-2 2.5 ng/mL) [24] | 4.27
[15] | 4.14
[25] | 0.64
[26] | 2.81
[27] | 2.92
[28] | 0.89
